We go through 1 molecule from patent US20030180249A1, “Dosage forms for hygroscopic active ingredients” (priority 2002, published 2003).

Type in all cases: physicochemical
A short description of data set [1]: Storage stability of valproate resinates (severe conditions): moisture uptake and appearance. The following applies: 40° C., 75% Relative Humidity. As for the experimental part:
One gram of each dry resin and resinate were weighed out accurately on an analytical balance in an aluminum dish along with a sample of sodium valproate. They were dried for two hours @60° C. in vaccuo and then placed in an incubator was at 40° C. and 75% Relative Humidity. After 17 hours the samples were removed from the incubator and weighed and observations on appearance were noted. % weight increases were calculated.

A short description of data set [2]: Release of valproate from resinate, flow-thru filtration cell, USP 24 valproic acid dissolution medium. The following applies: 37° C., equivalent of 60 mg sodium valproate. As for the experimental part: The release of valproate from Resinate A was evaluated and compared to that of sodium valproate. The evaluation was performed using a 50 ml Millipore flow-thru filtration cell operated at 37° C. The dissolution medium was prepared as described in the US Pharmacopeia 24 monograph for Valproic Acid (page 1733).
An amount for resinate containing the equivalent of 60 mg of sodium valproate was used for one test and 60 mg of sodium valproate for the other. Fractions were collected at 20, 40, and 60 minutes. Sample preparation and analysis were done according to the US Pharmacopeia 24 monograph for Valproic Acid (page 1733).

A short description of data set [3]: Storage stability of valproate resinates (ambient conditions): appearance over time. The following applies: ambient 25° C., 56% relative humidity. As for the experimental part: The samples from Example 3 were re-dried @60° C. in vaccuo overnight and then exposed to ambient conditions. During the test the ambient temperature was 25° C. and relative humidity was 56%.

The structures appear in SMILES notation.

Turning to `CCCC(CCC)C(=O)[O-].[Na+]` [Na Valproate, sodium valproate], the “Moisture uptake (%)” value in data set [1] (17 hours, after drying 2 h at 60° C. in vacuo) stood at 40.4%. In addition, the figures for the “Observation (appearance)” value in data set [1] (after 17 hours), in data set [3] (time 7:30) and in data set [3] (time 7:45) were “Liquid”, “Sodium valproate sample is sticky;” and “Sodium valproate sample is sticky;”, respectively. The “% Valproate dissolved or released, 20 mins” value in data set [2] (20 mins) is given as 81.9%. In data set [2] (40 mins), the “% Valproate dissolved or released, 40 mins” value turned out to be 97.8%. For the same molecule, the “% Valproate dissolved or released, 60 mins” value in data set [2] (60 mins) was 100%. Besides, the “Total release” value in data set [2] is 60.1 mg.
